Source: US20050148627A1, “Benzopyran compounds for use in the treatment and prevention of inflammation related conditions” (priority 2003, published 2005)
Where “and” joins values, the source holds several entries; their conditions need not be identical. Equal entries are not always repeated.

Molecular target: COX-1 (Homo sapiens, UniProt P23219)
Assay: biochemical
Method: Evaluation of COX-1 and COX-2 Activity In Vitro
b. Assay for COX-1 and COX-2 Activity
COX activity was assayed as PGE2 formed/μg protein/time using an ELISA to detect the prostaglandin released. CHAPS-solubilized insect cell membranes containing the appropriate COX enzyme were incubated in a potassium phosphate buffer (50 mM, pH 8.0) containing epinephrine, phenol, and heme with the addition of arachidonic acid (10 μM). Compounds were pre-incubated with the enzyme for 10-20 minutes prior to the addition of arachidonic acid. […] The PGE2 formed was measured by standard ELISA technology (Cayman Chemical).

Sequence of COX-1 (P23219 24-599): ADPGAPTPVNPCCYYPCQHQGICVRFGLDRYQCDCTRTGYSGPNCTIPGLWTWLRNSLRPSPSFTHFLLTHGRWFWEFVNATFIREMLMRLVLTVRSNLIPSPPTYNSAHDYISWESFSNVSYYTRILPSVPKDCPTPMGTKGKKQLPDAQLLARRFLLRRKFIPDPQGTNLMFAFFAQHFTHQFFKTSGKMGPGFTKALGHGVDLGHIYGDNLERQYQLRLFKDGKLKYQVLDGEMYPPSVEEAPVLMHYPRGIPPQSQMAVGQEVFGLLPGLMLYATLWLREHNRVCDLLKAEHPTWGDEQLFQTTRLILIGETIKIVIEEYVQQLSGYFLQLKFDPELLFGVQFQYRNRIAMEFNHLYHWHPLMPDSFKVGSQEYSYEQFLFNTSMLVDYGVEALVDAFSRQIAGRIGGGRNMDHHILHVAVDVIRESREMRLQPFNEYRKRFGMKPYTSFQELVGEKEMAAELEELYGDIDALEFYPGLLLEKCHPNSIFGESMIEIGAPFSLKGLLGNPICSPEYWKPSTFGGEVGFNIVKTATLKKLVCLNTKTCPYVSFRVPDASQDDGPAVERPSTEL

SMILES | IC50
COc1ccc2c(c1OC)OC(C(F)(F)F)C(C(=O)O)=C2 (centres unmarked) [Example 4a, 7,8-dimethoxy-2-(trifluoromethyl)-2H-chromene-3-carboxylic acid] | > 500 µM
COc1c(Cl)cc2c(c1OC)OC(C(F)(F)F)C(C(=O)O)=C2 (centres unmarked) [Example 4b, 6-chloro-7,8-dimethoxy-2-(trifluoromethyl)-2H-chromene-3-carboxylic acid] | > 500 µM
O=C(O)C1=Cc2ccc(Oc3ccc([N+](=O)[O-])cc3F)cc2OC1C(F)(F)F (centres unmarked) [Example 5a, 7-(2-fluoro-4-nitrophenoxy)-2-(trifluoromethyl)-2H-chromene-3-carboxylic acid] | > 100 µM and 264 µM and 199 µM
CC(C)(C)Oc1ccc2c(c1)OC(C(F)(F)F)C(C(=O)O)=C2 (centres unmarked) [Example 5b, 7-tert-butoxy-2-(trifluoromethyl)-2H-chromene-3-carboxylic acid] | > 500 µM
COc1ccc2c(c1C)OC(C(F)(F)F)C(C(=O)O)=C2 (centres unmarked) [Example 5c, 7-methoxy-8-methyl-2-(trifluoromethyl)-2H-chromene-3-carboxylic acid] | > 100 µM and 478 µM
CCC(CC)COc1ccc2c(c1C)OC(C(F)(F)F)C(C(=O)O)=C2 (centres unmarked) [Example 5d, 7-(2-ethylbutoxy)-8-methyl-2-(trifluoromethyl)-2H-chromene-3-carboxylic acid] | 31.9 µM and 17.2 µM
COCCOc1ccc2c(c1)OC(C(F)(F)F)C(C(=O)O)=C2 (centres unmarked) [Example 5e, 7-(2-methoxyethoxy)-2-(trifluoromethyl)-2H-chromene-3-carboxylic acid] | > 100 µM
O=C(O)C1=Cc2ccc(OCc3ccco3)cc2OC1C(F)(F)F (centres unmarked) [Example 5f, 7-(2-furylmethoxy)-2-(trifluoromethyl)-2H-chromene-3-carboxylic acid] | > 100 µM
O=C(O)COc1ccc2c(c1)OC(C(F)(F)F)C(C(=O)O)=C2 (centres unmarked) [Example 5g, 7-(carboxymethoxy)-2-(trifluoromethyl)-2H-chromene-3-carboxylic acid] | > 100 µM
Cc1c(Cl)cc(C(C)C)c2c1C=C(C(=O)O)C(C(F)(F)F)O2 (centres unmarked) [Example 6, 6-chloro-8-isopropyl-5-methyl-2-(trifluoromethyl)-2H-chromene-3-carboxylic acid] | > 100 µM and 188 µM and 194 µM
CCSc1cc2c(cc1Cl)C=C(C(=O)O)C(C(F)(F)F)O2 (centres unmarked) [Example 7a, 6-chloro-7-(ethylthio)-2-(trifluoromethyl)-2H-chromene-3-carboxylic acid] | > 100 µM
CC(C)CCSc1cc2c(cc1Cl)C=C(C(=O)O)C(C(F)(F)F)O2 (centres unmarked) [Example 7b, 6-chloro-7-(isopentylthio)-2-(trifluoromethyl)-2H-chromene-3-carboxylic acid] | > 100 µM
CCCSc1cc2c(cc1Cl)C=C(C(=O)O)C(C(F)(F)F)O2 (centres unmarked) [Example 7c, 6-chloro-7-(propylthio)-2-(trifluoromethyl)-2H-chromene-3-carboxylic acid] | > 100 µM
O=C(O)C1=Cc2cc(Cl)c(SCc3ccccc3)cc2OC1C(F)(F)F (centres unmarked) [Example 7e, 7-(benzylthio)-6-chloro-2-(trifluoromethyl)-2H-chromene-3-carboxylic acid] | > 100 µM
CCCCSc1cc2c(cc1Cl)C=C(C(=O)O)C(C(F)(F)F)O2 (centres unmarked) [Example 7f, 7-(butylthio)-6-chloro-2-(trifluoromethyl)-2H-chromene-3-carboxylic acid] | 70.8 µM
CCC(C)Sc1cc2c(cc1Cl)C=C(C(=O)O)C(C(F)(F)F)O2 (centres unmarked) [Example 7g, 7-(sec-butylthio)-6-chloro-2-(trifluoromethyl)-2H-chromene-3-carboxylic acid] | 7.2 µM and 6.35 µM
CC1CC(C)CN(c2cc3c(cc2Cl)C=C(C(=O)O)C(C(F)(F)F)O3)C1 (centres unmarked) [Example 8a, 6-chloro-7-(3,5-dimethylpiperidin-1-yl)-2-(trifluoromethyl)-2H-chromene-3-carboxylic acid] | > 100 µM and 57.2 µM
CC1CCCN(c2cc3c(cc2Cl)C=C(C(=O)O)C(C(F)(F)F)O3)C1 (centres unmarked) [Example 8b, 6-chloro-7-(3-methylpiperidin-1-yl)-2-(trifluoromethyl)-2H-chromene-3-carboxylic acid] | 99 µM and 189 µM
CC1CCN(c2cc3c(cc2Cl)C=C(C(=O)O)C(C(F)(F)F)O3)CC1 (centres unmarked) [Example 8d, 6-chloro-7-(4-methylpiperidin-1-yl)-2-(trifluoromethyl)-2H-chromene-3-carboxylic acid] | > 100 µM
O=C(O)C1=Cc2cc(Cl)c(N3CC=CCC3)cc2OC1C(F)(F)F (centres unmarked) [Example 8e, 6-chloro-7-(3,6-dihydropyridin-1(2H)-yl)-2-(trifluoromethyl)-2H-chromene-3-carboxylic acid] | > 100 µM and 130 µM
CCN(C)c1cc2c(cc1Cl)C=C(C(=O)O)C(C(F)(F)F)O2 (centres unmarked) [Example 8f, 6-chloro-7-[ethyl(methyl)amino]-2-(trifluoromethyl)-2H-chromene-3-carboxylic acid] | > 100 µM
CCCN(CC1CC1)c1cc2c(cc1Cl)C=C(C(=O)O)C(C(F)(F)F)O2 (centres unmarked) [Example 8g, 6-chloro-7-[(cyclopropylmethyl)(propyl)amino]-2-(trifluoromethyl)-2H-chromene-3-carboxylic acid] | > 100 µM and 194 µM

SMILES | IC50
CCCCN(CC)c1cc2c(cc1Cl)C=C(C(=O)O)C(C(F)(F)F)O2 (centres unmarked) [Example 8h, 7-[butyl(ethyl)amino]-6-chloro-2-(trifluoromethyl)-2H-chromene-3-carboxylic acid] | > 100 µM
CN(Cc1ccccc1)c1cc2c(cc1Cl)C=C(C(=O)O)C(C(F)(F)F)O2 (centres unmarked) [Example 8i, 7-[benzyl(methyl)amino]-6-chloro-2-(trifluoromethyl)-2H-chromene-3-carboxylic acid] | 14.1 µM
O=C(O)C1=Cc2cc(Cl)c(N3CCC3)cc2OC1C(F)(F)F (centres unmarked) [Example 8j, 7-azetidin-1-yl-6-chloro-2-(trifluoromethyl)-2H-chromene-3-carboxylic acid] | > 100 µM
O=C(O)C1=Cc2cc(Cl)c(NCc3ccccc3)cc2OC1C(F)(F)F (centres unmarked) [Example 8k, 7-(benzylamino)-6-chloro-2-(trifluoromethyl)-2H-chromene-3-carboxylic acid] | > 100 µM
CCN(CC)c1cc2c(cc1Cl)C=C(C(=O)O)C(C(F)(F)F)O2 (centres unmarked) [Example 8l, 6-chloro-7-(diethylamino)-2-(trifluoromethyl)-2H-chromene-3-carboxylic acid] | > 33.3 µM and > 11.1 µM and 180 µM and > 100 µM
CCCCc1cc2c(cc1Cl)C=C(C(=O)O)C(C(F)(F)F)O2 (centres unmarked) [Example 9a, 7-butyl-6-chloro-2-(trifluoromethyl)-2H-chromene-3-carboxylic acid] | 9.97 µM and 5.11 µM and 9.72 µM and 5.97 µM and 8.31 µM and 9.5 µM and > 1.2 µM
O=C(O)C1=Cc2ccc(Cc3ccc(F)c(F)c3)cc2OC1C(F)(F)F (centres unmarked) [Example 9aa, 7-(3,4-difluorobenzyl)-2-(trifluoromethyl)-2H-chromene-3-carboxylic acid] | > 100 µM
CC(C)(C)CCc1cc2c(cc1Cl)C=C(C(=O)O)C(C(F)(F)F)O2 (centres unmarked) [Example 9b, 6-chloro-7-(3,3-dimethylbutyl)-2-(trifluoromethyl)-2H-chromene-3-carboxylic acid] | 19 µM and 17.9 µM
O=C(O)C1=Cc2ccc(Cc3ccc(F)cc3)cc2OC1C(F)(F)F (centres unmarked) [Example 9bb, 7-(4-fluorobenzyl)-2-(trifluoromethyl)-2H-chromene-3-carboxylic acid] | 37.4 µM
CC(C)c1cc2c(cc1Cl)C=C(C(=O)O)C(C(F)(F)F)O2 (centres unmarked) [Example 9f, 6-chloro-7-isopropyl-2-(trifluoromethyl)-2H-chromene-3-carboxylic acid] | 147 µM and > 100 µM
CC(C)c1cc2c(cc1Cl)C(Cl)=C(C(=O)O)C(C(F)(F)F)O2 (centres unmarked) [Example 9g, 4,6-dichloro-7-isopropyl-2-(trifluoromethyl)-2H-chromene-3-carboxylic acid] | 24.2 µM and 25.1 µM
O=C(O)C1=Cc2cc(Cl)c(CCC3CCCCC3)cc2OC1C(F)(F)F (centres unmarked) [Example 9i, 6-chloro-7-(2-cyclohexylethyl)-2-(trifluoromethyl)-2H-chromene-3-carboxylic acid] | 12.7 µM and 12.5 µM
O=C(O)C1=Cc2cc(Cl)c(CCc3ccc(Cl)cc3)cc2OC1C(F)(F)F (centres unmarked) [Example 9j, 6-chloro-7-[2-(4-chlorophenyl)ethyl]-2-(trifluoromethyl)-2H-chromene-3-carboxylic acid] | 11.4 µM and 14 µM
O=C(O)C1=Cc2cc(Cl)c(Cc3ccccc3)cc2OC1C(F)(F)F (centres unmarked) [Example 9k, 7-benzyl-6-chloro-2-(trifluoromethyl)-2H-chromene-3-carboxylic acid] | 0.603 µM and 2.17 µM
O=C(O)C1=Cc2cc(Cl)c(Cc3ccccc3Cl)cc2OC1C(F)(F)F (centres unmarked) [Example 9n, 6-chloro-7-(2-chlorobenzyl)-2-(trifluoromethyl)-2H-chromene-3-carboxylic acid] | 0.425 µM
O=C(O)C1=Cc2cc(Cl)c(Cc3ccc(Cl)cc3)cc2OC1C(F)(F)F (centres unmarked) [Example 9o, 6-chloro-7-(4-chlorobenzyl)-2-(trifluoromethyl)-2H-chromene-3-carboxylic] | 9.67 µM and 12.1 µM
Cc1cc(Cl)ccc1Cc1cc2c(cc1Cl)C=C(C(=O)O)C(C(F)(F)F)O2 (centres unmarked) [Example 9p, 6-chloro-7-(4-chloro-2-methylbenzyl)-2-(trifluoromethyl)-2H-chromene-3-carboxylic acid] | 1.51 µM
COc1ccc(Cc2cc3c(cc2Cl)C=C(C(=O)O)C(C(F)(F)F)O3)cc1 (centres unmarked) [Example 9q, 6-chloro-7-(4-methoxybenzyl)-2-(trifluoromethyl)-2H-chromene-3-carboxylic acid] | 99.9 µM
COc1ccc(Cc2cc3c(cc2Cl)C=C(C(=O)O)C(C(F)(F)F)O3)cc1Cl (centres unmarked) [Example 9r, 6-chloro-7-(3-chloro-4-methoxybenzyl)-2-(trifluoromethyl)-2H-chromene-3-carboxylic acid] | 80.8 µM
Cc1ccc(Cc2cc3c(cc2Cl)C=C(C(=O)O)C(C(F)(F)F)O3)c(C)c1 (centres unmarked) [Example 9s, 6-chloro-7-(2,4-dimethylbenzyl)-2-(trifluoromethyl)-2H-chromene-3-carboxylic acid] | 5.85 µM and 5.72 µM
Cc1cc(C)c(Cc2cc3c(cc2Cl)C=C(C(=O)O)C(C(F)(F)F)O3)cc1Cl (centres unmarked) [Example 9t, 6-chloro-7-(5-chloro-2,4-dimethylbenzyl)-2-(trifluoromethyl)-2H-chromene-3-carboxylic acid] | 5.5 µM
Cc1ccc(Cc2cc3c(cc2Cl)C=C(C(=O)O)C(C(F)(F)F)O3)c(C)c1Cl (centres unmarked) [Example 9u, 6-chloro-7-(3-chloro-2,4-dimethylbenzyl)-2-(trifluoromethyl)-2H-chromene-3-carboxylic acid] | 5.52 µM
